We go through 12 molecules from patent US6444685B1, “N-(4-sulfonylaryl)Cyclylamine 2-hydroxyethylamines as beta-3 adrenergic receptor agonists” (Wyeth, priority 2000, dated 2002).

Each structure is given as a SMILES string.

Data set [1] addresses T1, human β1-adrenergic receptor (Homo sapiens, UniProt P08588).
T1 construct: expressed in transfected cells; host or cells: CHO cells
In words: cAMP accumulation (SPA) in CHO cells transfected with human β1 adrenergic receptor. The following applies: for EC50: CHO cells transfected with human β1-AR, cAMP, 15 min incubation, 10^−8 to 10^−4 M, read-out: beta-1 EC50; for beta-1 (IA) maximal response relative to isoproterenol: IA = % activity compound / % activity isoproterenol at 10^−5 M, CHO human β1 cells. Format: cell-based. In a few lines:
(§1)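 CHO cell clones expressing 70–110 fmol/mg protein of receptor were pre-incubated 30 min at 37 °C, then treated 15 min at 37 °C with compound (10^−8 to 10^−4 M) in DMEM with 250 μM IBMX and 1 mM ascorbic acid. cAMP was read by SPA after acid stop. EC50 and IA were expressed relative to maximal 10^−5 M isoproterenol response.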
On the technique in general: cAMP levels reflect the balance of adenylyl cyclase and phosphodiesterase activity.

The target in data set [2] is T2, human β2-adrenergic receptor (Homo sapiens, UniProt P07550).
T2 construct: expressed in transfected cells; host or cells: CHO cells
T2 sequence (P07550 whole entry): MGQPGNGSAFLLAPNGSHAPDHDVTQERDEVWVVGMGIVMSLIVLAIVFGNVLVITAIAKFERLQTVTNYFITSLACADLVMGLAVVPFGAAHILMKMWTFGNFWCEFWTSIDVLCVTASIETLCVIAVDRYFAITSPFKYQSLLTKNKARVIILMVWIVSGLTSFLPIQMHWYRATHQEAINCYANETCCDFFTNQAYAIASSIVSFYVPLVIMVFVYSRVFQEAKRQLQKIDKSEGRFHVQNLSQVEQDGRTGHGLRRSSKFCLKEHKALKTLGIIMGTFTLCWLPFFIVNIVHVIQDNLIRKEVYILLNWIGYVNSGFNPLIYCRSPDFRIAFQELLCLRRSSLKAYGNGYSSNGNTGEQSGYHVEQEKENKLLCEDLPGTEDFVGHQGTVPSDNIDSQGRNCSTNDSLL
The data set can be described thus: cAMP accumulation (SPA) in CHO cells transfected with human β2 adrenergic receptor. The following applies: for EC50: CHO cells transfected with human β2-AR, cAMP, 15 min incubation, 10^−8 to 10^−4 M, read-out: beta-2 EC50; for beta-2 (IA) maximal response relative to isoproterenol: IA = % activity compound / % activity isoproterenol at 10^−5 M, CHO human β2 cells. It counts as cell-based. In a few lines: as §1

The target of data set [3] is T3, human β3 adrenergic receptor (Homo sapiens, UniProt P13945).
T3 construct: Full length β3 AR clones (402 amino acids) containing the last 6 amino acids of hβ3— AR are prepared; expressed in transfected cells; host or cells: CHO cells
T3 sequence (P13945 whole entry): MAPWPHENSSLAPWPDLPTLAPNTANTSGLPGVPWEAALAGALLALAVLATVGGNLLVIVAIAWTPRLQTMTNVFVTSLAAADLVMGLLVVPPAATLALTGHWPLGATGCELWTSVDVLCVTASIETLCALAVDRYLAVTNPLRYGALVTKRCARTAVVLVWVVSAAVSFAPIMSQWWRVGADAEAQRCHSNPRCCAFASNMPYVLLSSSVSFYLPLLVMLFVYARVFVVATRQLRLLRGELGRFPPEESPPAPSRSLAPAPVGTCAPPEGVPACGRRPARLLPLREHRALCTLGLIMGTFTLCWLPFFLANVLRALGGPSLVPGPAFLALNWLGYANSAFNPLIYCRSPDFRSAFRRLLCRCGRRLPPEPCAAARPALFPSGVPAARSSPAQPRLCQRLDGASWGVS
In words: cAMP accumulation (SPA) in CHO cells transfected with human β3 adrenergic receptor. It counts as cell-based. The following applies: for EC50: CHO cells expressing human β3-AR, cAMP, 30 min incubation, 10^−9 M to 10^−5 M, read-out: beta-3 EC50; for beta-3 (IA) maximal response relative to isoproterenol: IA = % activity compound / % activity isoproterenol at 10^−5 M, CHO human β3 cells. In a few lines:
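CHO cells expressing human β3-AR (70–110 fmol/mg protein) treated with compound at 10^−9 to 10^−5 M in DMEM with 250 μM IBMX and 1 mM ascorbic acid, 30 min, 37 °C. cAMP measured by SPA; EC50 derived, and intrinsic activity expressed relative to the maximal response of 10^−5 M isoproterenol.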

T1 sequence (P08588 whole entry): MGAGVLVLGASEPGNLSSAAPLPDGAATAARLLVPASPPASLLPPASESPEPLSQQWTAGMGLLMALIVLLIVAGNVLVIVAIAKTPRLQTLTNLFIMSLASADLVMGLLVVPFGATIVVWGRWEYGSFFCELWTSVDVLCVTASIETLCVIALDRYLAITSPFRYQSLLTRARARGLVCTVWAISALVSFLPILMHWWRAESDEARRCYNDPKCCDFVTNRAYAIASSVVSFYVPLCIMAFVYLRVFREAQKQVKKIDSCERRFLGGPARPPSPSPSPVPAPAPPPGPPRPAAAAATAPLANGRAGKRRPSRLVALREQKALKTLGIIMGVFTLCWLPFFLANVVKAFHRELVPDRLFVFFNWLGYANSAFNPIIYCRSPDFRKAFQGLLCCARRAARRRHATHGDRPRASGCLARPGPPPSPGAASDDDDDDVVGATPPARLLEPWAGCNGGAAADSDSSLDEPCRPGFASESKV

As to `CS(=O)(=O)Nc1cc([C@@H](O)CNC2CCN(c3ccc(S(=O)(=O)N4CCC[C@H]4C(=O)OCc4ccccc4)cc3)CC2)ccc1O` [Example 22, (2S)-1-(4-{4-[(2R)-2-Hydroxy-2-(4-hydroxy-3-methanesulfonylamino-phenyl)-ethylamino]-piperidin-1-yl}-benzenesulfonyl)-pyrrolidine-2-carboxylic Acid Benzyl Ester], the melting point (as a rule, the temperature of the solid-liquid transition) lay within 65 to 71 °C. In data set [1], the EC50 (commonly the concentration needed to bring the measured effect to its halfway point) was 0.2 µM and the “beta-1 (IA) maximal response relative to isoproterenol” value is “(1.08)”. Besides, in data set [2], the half-maximal effective concentration (EC50) turned out to be 0.04 µM and the “beta-2 (IA) maximal response relative to isoproterenol” value was “(0.63)”. In addition, in data set [3], the concentration for a half-maximal effect (EC50) was 0.002 µM and the “beta-3 (IA) maximal response relative to isoproterenol” value is reported as “(1)”.

On to `Cc1ccc(S(=O)(=O)c2ccc(N3CCC(NCC(O)c4ccc(O)c(NS(C)(=O)=O)c4)CC3)cc2)cc1` (stereo not drawn) [Example 45, N-[2-Hydroxy-5-(1-hydroxy-2-{1-[4-(toluene-4-sulfonyl)-phenyl]-piperidin-4-ylamino}-ethyl)-phenyl]-methanesulfonamide], for which the melting point lay in the range of 115 to 118 °C. Also, in data set [1], the concentration for a half-maximal effect (EC50) was 0.02 µM and the “beta-1 (IA) maximal response relative to isoproterenol” value is “(0.74)”. In data set [2], the concentration giving a half-maximal response (EC50) turned out to be 0.7 µM and the “beta-2 (IA) maximal response relative to isoproterenol” value is recorded as “(0.63)”. Also, in data set [3], the EC50 is 0.001 µM and the “beta-3 (IA) maximal response relative to isoproterenol” value is reported as “(1)”.

The molecule `CCOC(=O)CNS(=O)(=O)c1ccc(N2CCC(NC[C@H](O)c3ccc(O)c(NS(C)(=O)=O)c3)CC2)cc1` [Example 56, Ethyl 2-{[(4-{4-[((2R)-2-Hydroxy-2-{4-hydroxy-3-[(methylsulfonyl)amino]-phenyl}ethyl)amino]-1-piperidinyl}phenyl)sulfonyl]amino}acetate] displayed a melting point of 105 to 107 °C. Further, in data set [1], the 50% effective concentration (EC50) came to 9.5 µM and the “beta-1 (IA) maximal response relative to isoproterenol” value was “(0.31)”. Also, in data set [2], the EC50 is 1.6 µM and the “beta-2 (IA) maximal response relative to isoproterenol” value is “(0.27)”. In data set [3], the half-maximal effective concentration (EC50) came out at 0.014 µM and the “beta-3 (IA) maximal response relative to isoproterenol” value is “(1)”.

`CC(C)(C)OC(=O)CNS(=O)(=O)c1ccc(N2CCC(NC[C@H](O)c3ccc(O)c(NS(C)(=O)=O)c3)CC2)cc1` [Example 52, tert-Butyl 2-{[(4-{4-[((2R)-2-hydroxy-2-{4-hydroxy-3-[(methylsulfonyl)amino]-phenyl}ethyl)amino]-1-piperidinyl}phenyl)sulfonyl]amino}acetate] had a melting point of 113 to 115 °C. For the same molecule, in data set [1], the EC50 stood at 0.96 µM and the “beta-1 (IA) maximal response relative to isoproterenol” value is “(0.48)”. Besides, in data set [2], the 50% effective concentration (EC50) came out at 0.48 µM and the “beta-2 (IA) maximal response relative to isoproterenol” value is “(0.65)”. In data set [3], the EC50 is 0.006 µM and the “beta-3 (IA) maximal response relative to isoproterenol” value is listed as “(1)”.

Take `CCOC(=O)CN(Cc1cc(F)ccc1F)S(=O)(=O)c1ccc(N2CCC(NC[C@H](O)c3ccc(O)c(NS(C)(=O)=O)c3)CC2)cc1` [Example 61, Ethyl {(2,5-Difluorobenzyl)[(4-{4-[((2R)-2-hydroxy-2-{4-hydroxy-3-[(methyl-sulfonyl)amino]phenyl}ethyl)amino]piperidin-1-yl}phenyl)sulfonyl]amino}acetate]: the melting point lay in the range of 85 to 90 °C. Further, in data set [1], the EC50 stood at 1.9 µM and the “beta-1 (IA) maximal response relative to isoproterenol” value was “(0.3)”. For the same molecule, the “beta-2 (IA) maximal response relative to isoproterenol” value in data set [2] is given as “(0.2)”. In data set [3], the concentration giving a half-maximal response (EC50) stood at 0.001 µM and the “beta-3 (IA) maximal response relative to isoproterenol” value was “(1.1)”.

Regarding `CS(=O)(=O)Nc1cc([C@@H](O)CNC2CCN(c3ccc(S(=O)(=O)N4CCC[C@@H]4C(=O)OCc4ccccc4)cc3)CC2)ccc1O` [Example 21, (2R)-1-(4-{4-[(2R)-2-Hydroxy-2-(4-hydroxy-3-methanesulfonylamino-phenyl)-ethylamino]-piperidin-1-yl}-benzenesulfonyl)-pyrrolidine-2-carboxylic Acid Benzyl Ester], the melting point is 62 to 69 °C. Besides, in data set [1], the EC50 was 0.06 µM and the “beta-1 (IA) maximal response relative to isoproterenol” value is recorded as “(0.88)”. For the same molecule, in data set [2], the half-maximal effective concentration (EC50) was 0.64 µM and the “beta-2 (IA) maximal response relative to isoproterenol” value is on record as “(0.82)”. For the same molecule, in data set [3], the concentration for a half-maximal effect (EC50) amounted to 0.001 µM and the “beta-3 (IA) maximal response relative to isoproterenol” value was “(1)”.

Consider `CCCCNC(=O)NS(=O)(=O)c1ccc(N2CCC(NC[C@H](O)c3ccc(O)c(NS(C)(=O)=O)c3)CC2)cc1` [Example 62, 1-[4-({[(Butylamino)carbonyl]amino}sulfonyl)phenyl]-4-[((2)-2-hydroxy-2-{4-hydroxy-3-[(methylsulfonyl)amino]phenyl}ethyl)amino]piperidine], for which the melting point lay within 100 to 102 °C. In data set [1], the EC50 came out at 5 µM and the “beta-1 (IA) maximal response relative to isoproterenol” value is listed as “(0.32)”. In data set [2], the EC50 was 5 µM and the “beta-2 (IA) maximal response relative to isoproterenol” value is “(0.31)”. In data set [3], the EC50 stood at 0.009 µM and the “beta-3 (IA) maximal response relative to isoproterenol” value is “(1)”.

As for `CN1CCN(S(=O)(=O)c2ccc(N3CCC(NC[C@H](O)c4ccc(O)c(NS(C)(=O)=O)c4)CC3)cc2)CC1` [Example 66, N-(2-Hydroxy-5-{(1R)-1-hydroxy-2-[(1-{4-[(4-methylpiperazin-1-yl)sulfonyl]phenyl}piperidin-4-yl)amino]ethyl}phenyl)methanesulfonamide], the melting point is 89 to 91 °C. For the same molecule, in data set [1], the concentration for a half-maximal effect (EC50) was 2.7 µM and the “beta-1 (IA) maximal response relative to isoproterenol” value is “(0.44)”. The “beta-2 (IA) maximal response relative to isoproterenol” value in data set [2] is “(0.17)”. Further, in data set [3], the concentration for a half-maximal effect (EC50) came to 0.025 µM and the “beta-3 (IA) maximal response relative to isoproterenol” value was “(0.95)”.

`CCOC(=O)NC(=O)CNS(=O)(=O)c1ccc(N2CCC(NC[C@H](O)c3ccc(O)c(NS(C)(=O)=O)c3)CC2)cc1` [Example 58, Ethyl 2-{[(4-{4-[((2R)-2-Hydroxy-2-{4-hydroxy-3-((methylsulfonyl)amino]-phenyl}ethyl)amino]piperidin-1-yl}phenyl)sulfonyl]amino}acetylcarbamate] gave a melting point of 98 to 105 °C. Further, in data set [1], the half-maximal effective concentration (EC50) was determined as 3.6 µM and the “beta-1 (IA) maximal response relative to isoproterenol” value was “(0.65)”. Moreover, in data set [2], the EC50 came to 3.9 µM and the “beta-2 (IA) maximal response relative to isoproterenol” value is given as “(0.31)”. In data set [3], the EC50 was 0.011 µM and the “beta-3 (IA) maximal response relative to isoproterenol” value was “(1)”.

The molecule `CCOC(=O)CN1CCN(S(=O)(=O)c2ccc(N3CCC(NC[C@H](O)c4ccc(O)c(NS(C)(=O)=O)c4)CC3)cc2)CC1` [Example 64, Ethyl {4-((4-{4-[((2R)-2-Hydroxy-2-{4-hydroxy-3-[(methylsulfonyl)amino]-phenyl}ethyl)amino]piperidin-1-yl}phenyl)sulfonyl]piperazin-1-yl}acetate] gave a melting point of 91 to 92 °C. The “beta-1 (IA) maximal response relative to isoproterenol” value in data set [1] was “(0.11)”. Moreover, in data set [2], the concentration giving a half-maximal response (EC50) is 5.9 µM and the “beta-2 (IA) maximal response relative to isoproterenol” value is on record as “(0.22)”. In addition, in data set [3], the EC50 was determined as 0.004 µM and the “beta-3 (IA) maximal response relative to isoproterenol” value is listed as “(1.1)”.

`CS(=O)(=O)Nc1cc([C@@H](O)CNC2CCN(c3ccc(S(=O)(=O)N4CC(=O)NC4=O)cc3)CC2)ccc1O` [Example 50, N-[5-((1R)-2-{1-[4-(2,4-Dioxo-imidazolidine-1-sulfonyl)-phenyl]piperidin-4-ylamino}-1-hydroxy-ethyl)-2-hydroxy-phenyl]-methanesulfonamide] had a melting point of 200 to 202 °C. Further, in data set [1], the EC50 came to 2.6 µM and the “beta-1 (IA) maximal response relative to isoproterenol” value was “(0.72)”. Also, in data set [2], the concentration for a half-maximal effect (EC50) worked out at 7 µM and the “beta-2 (IA) maximal response relative to isoproterenol” value is on record as “(0.35)”. In data set [3], the EC50 amounted to 0.01 µM and the “beta-3 (IA) maximal response relative to isoproterenol” value is recorded as “(1)”.

As to `CCCCN(CC(=O)OCC)S(=O)(=O)c1ccc(N2CCC(NC[C@H](O)c3ccc(O)c(NS(C)(=O)=O)c3)CC2)cc1` [Example 23, [Butyl-(4-{4-[(2R)-2-hydroxy-2-(4-hydroxy-3-methanesulfonylamino-phenyl)-ethylamino]-piperidin-1-yl}-benzenesulfonyl)-amino]-acetic Acid Ethyl Ester], the melting point is 94 to 95 °C. In data set [1], the concentration giving a half-maximal response (EC50) came to 1.32 µM and the “beta-1 (IA) maximal response relative to isoproterenol” value is given as “(0.68)”. In addition, in data set [2], the EC50 worked out at 1.67 µM and the “beta-2 (IA) maximal response relative to isoproterenol” value was “(0.89)”. Besides, in data set [3], the concentration for a half-maximal effect (EC50) is 0.016 µM and the “beta-3 (IA) maximal response relative to isoproterenol” value is on record as “(1)”.
